Data from patent US8530465B2, “1, 2-disubstituted amido-anthraquinone derivatives, preparation method and application thereof” (National Defense Medical Center, priority 2010, dated 2013).

Tests used:
UACC-62 = test: NCI drug screen, UACC-62; type: cell-based, human; conditions: UACC-62 (Melanoma); 1.00E−5 Molar
Description: (§1) In brief, cellular protein levels were determined after 48 hours of drug exposure by sulforhodamine B colorimetry. Through the use of a time 0 cell control, the cell growth can be determined for each cell line thus allowing calculations of the 50% growth inhibitory concentration (GI50), the total growth inhibition (TGI), and the 50% lethal concentration (LC50). Comparison to plates not exposed to drug permits determination of concentration and times of exposure conferring 50% net growth inhibition (GI50), TGI, and 50% cell kill (LC50).
(§2) The screening system in United State National Cancer Institute (NCI) is consisted of 60 kinds of different human cancer cells, which can be used to assay the growth-inhibiting ability or cell toxicity of a compound against various cancer and tumor at a certain concentration.

SNB-75 = test: NCI drug screen, SNB-75; type: cell-based, human; conditions: SNB-75 (CNS Cancer); 1.00E−5 Molar
Description: as §1, §2

SR = test: NCI drug screen, SR; type: cell-based, human; conditions: SR (Leukemia); 1.00E−5 Molar
Description: as §1, §2

IGROV1 = test: NCI drug screen, IGROV1; type: cell-based, human; conditions: IGROV1 (Ovarian Cancer); 1.00E−5 Molar
Description: as §1, §2

SK-MEL-5 = test: NCI drug screen, SK-MEL-5; type: cell-based, human; conditions: SK-MEL-5 (Melanoma); 1.00E−5 Molar
Description: as §1, §2

M14 = test: NCI drug screen, M14; type: cell-based, human; conditions: M14 (Melanoma); 1.00E−5 Molar
Description: as §1, §2

OVCAR-8 = test: NCI drug screen, OVCAR-8; type: cell-based, human; conditions: OVCAR-8 (Ovarian Cancer); 1.00E−5 Molar
Description: as §1, §2

HOP-62 = test: NCI drug screen, HOP-62; type: cell-based, human; conditions: HOP-62 (Non-Small Cell Lung Cancer); 1.00E−5 Molar
Description: as §1, §2

CAKI-1 = test: NCI drug screen, CAKI-1; type: cell-based, human; conditions: CAKI-1 (Renal Cancer); 1.00E−5 Molar
Description: as §1, §2

SK-OV-3 = test: NCI drug screen, SK-OV-3; type: cell-based, human; conditions: SK-OV-3 (Ovarian Cancer); 1.00E−5 Molar
Description: as §1, §2

hTERT = test: Secreted alkaline phosphatase (SEAP) assay, PhTERT-SEAP (H1299); type: cell-based; conditions: Homo sapiens, 24 hours
How it was run: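 Stable H1299 clone carrying the −3338 to +1 bp hTERT promoter upstream of SEAP; ~10^4 cells/well treated with varying drug amounts for 24 h at 37° C. Media heat-treated 65° C. 10 min, mixed with diethanolamine/MgCl2/L-homoarginine buffer and 12 mM p-nitrophenyl phosphate final; SEAP activity taken as rate of A405 increase.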

MCF7 = test: NCI drug screen, MCF7; type: cell-based, human; conditions: MCF7 (Breast Cancer); 1.00E−5 Molar
Description: as §1, §2

T-47D = test: NCI drug screen, T-47D; type: cell-based, human; conditions: T-47D (Breast Cancer); 1.00E−5 Molar
Description: as §1, §2

SF-539 = test: NCI drug screen, SF-539; type: cell-based, human; conditions: SF-539 (CNS Cancer); 1.00E−5 Molar
Description: as §1, §2

HOP-92 = test: NCI drug screen, HOP-92; type: cell-based, human; conditions: HOP-92 (Non-Small Cell Lung Cancer); 1.00E−5 Molar
Description: as §1, §2

SK-MEL-28 = test: NCI drug screen, SK-MEL-28; type: cell-based, human; conditions: SK-MEL-28 (Melanoma); 1.00E−5 Molar
Description: as §1, §2

NCI-H522 = test: NCI drug screen, NCI-H522; type: cell-based, human; conditions: NCI-H522 (Non-Small Cell Lung Cancer); 1.00E−5 Molar
Description: as §1, §2

[1] = MTT assay, PhTERT-SEAP (H1299); type: cell-based, human; conditions: human, H1299 cells carrying the PhTERT-SEAP reporter, PhTERT-SEAP (H1299)
How it was run: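 Cultured cells received MTT for 4 h at 37 °C, then lysis buffer overnight at 37 °C. Optical density was read at 550 nm.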

ACHN = test: NCI drug screen, ACHN; type: cell-based, human; conditions: ACHN (Renal Cancer); 1.00E−5 Molar
Description: as §1, §2

BT-549 = test: NCI drug screen, BT-549; type: cell-based, human; conditions: BT-549 (Breast Cancer); 1.00E−5 Molar
Description: as §1, §2

SNB-19 = test: NCI drug screen, SNB-19; type: cell-based, human; conditions: SNB-19 (CNS Cancer); 1.00E−5 Molar
Description: as §1, §2

DU145 = test: NCI drug screen, DU145; type: cell-based, human; conditions: DU145 (Prostate Cancer); 1.00E−5 Molar
Description: as §1, §2

MALME-3M = test: NCI drug screen, MALME-3M; type: cell-based, human; conditions: MALME-3M (Melanoma); 1.00E−5 Molar
Description: as §1, §2

Cc1ccc(C(=O)Nc2c(NC(=O)CN3CCN(C)CC3)ccc3c2C(=O)c2ccccc2C3=O)cc1 [CC-43, 1-(4-methylbenzamido)-2-[2-(4-methylpiperazino)acetylamino]-anthraquinone]
Growth Percent (UACC-62): −20.65%
Growth Percent (SNB-75): 82.17%
Growth Percent (SR): −43.70%
Growth Percent (IGROV1): 112.20%
Growth Percent (SK-MEL-5): 41.30%
Growth Percent (M14): −60.04%
Growth Percent (OVCAR-8): 46.43%
Growth Percent (HOP-62): 75.21%
Growth Percent (CAKI-1): 69.76%
Growth Percent (SK-OV-3): 108.91%
activity at 1 µM (hTERT; NCI-H1299, Conc. 1 μM, read-out: Relative SEAP activity (%)): 77.4 ± 1.5%
activity at 10 µM (hTERT; NCI-H1299, Conc. 10 μM, read-out: Relative SEAP activity (%) (converted)): 13.4%
activity at 100 µM (hTERT; NCI-H1299, Conc. 100 μM, read-out: Relative SEAP activity (%) (converted)): 3.15%
Growth Percent (MCF7): 31.79%
Growth Percent (T-47D): 52.62%
Growth Percent (SF-539): 62.68%
Growth Percent (HOP-92): 90.68%
Growth Percent (SK-MEL-28): −57.56%
Growth Percent (NCI-H522): 88.21%
viability at 1 μM ([1]; Conc. 1 μM, read-out: Relative MTT viability (%)): 78.8 ± 3.47%
viability at 10 μM ([1]; Conc. 10 μM, read-out: Relative MTT viability (%) (converted)): 29.5%
viability at 100 μM ([1]; Conc. 100 μM, read-out: Relative MTT viability (%) (converted)): 8.11%
Growth Percent (ACHN): 49.87%
Growth Percent (BT-549): 91.88%
Growth Percent (SNB-19): 68.75%
Growth Percent (DU145): 82.12%
Growth Percent (MALME-3M): 10.84%
